In ChEMBL document CHEMBL1201862, “PubChem BioAssay data set” (2004):
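Step 1: Grow cells in 96-well plates. Step 2: Expose to compound for 48 hours at 5 concentrations. Step 3: Interpolate endpoints linearly; if unreached, use highest concentration. GI50: concentration for 50% inhibition of growth.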 Calls of active or inactive are those of the source. No stated cut-off is given here; in the data, active = GI50 up to about 1.1 µM and inactive = higher.

Assays:
Assay in all cases: NCI anticancer screen, dose series, 48 h
[1] = system: Hs-578T
[2] = system: DU-145
[3] = system: MDA-MB-231
[4] = system: T47D
[5] = system: PC-3
[6] = system: MDA-MB-435
[7] = system: MDA-N
[8] = system: BT-549

Measured: GI50

O=C1CCC[C@H]2O[C@@H](COC(=O)c3ccccc3)C[C@H]2O1
inactive: [1] > 100 µM | [2] > 100 µM | [3] > 100 µM | [4] > 100 µM | [5] > 100 µM | [6] > 100 µM | [7] > 100 µM

O=C(NCCN(CCNC(=O)c1cccc(=O)n1O)CCNC(=O)c1cccc(=O)n1O)c1cccc(=O)n1O
inactive: [1] > 100 µM | [2] > 100 µM | [3] > 100 µM | [4] > 100 µM | [8] > 100 µM | [5] > 100 µM | [6] > 100 µM | [7] > 100 µM
